As usually defined, the IC50 is the concentration at which inhibition is half-maximal.

We go through 52 molecules from patent US6979686B1, “Substituted pyrazoles as p38 kinase inhibitors” (Pharmacia Corporation, priority 2001, dated 2005).

T1 sequence (Q16539 whole entry): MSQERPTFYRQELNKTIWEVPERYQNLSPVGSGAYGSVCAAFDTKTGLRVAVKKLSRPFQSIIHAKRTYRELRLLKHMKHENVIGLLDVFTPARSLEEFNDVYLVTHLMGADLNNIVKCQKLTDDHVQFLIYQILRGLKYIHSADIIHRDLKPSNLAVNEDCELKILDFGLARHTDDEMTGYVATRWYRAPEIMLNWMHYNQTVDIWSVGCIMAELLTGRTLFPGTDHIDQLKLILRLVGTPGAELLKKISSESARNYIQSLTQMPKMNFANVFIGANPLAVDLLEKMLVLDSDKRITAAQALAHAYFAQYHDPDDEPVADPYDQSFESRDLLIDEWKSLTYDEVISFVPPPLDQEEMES

One assay has as its target T1, human p38 kinase alpha (Homo sapiens, UniProt Q16539).
T1 construct: GST (N, cleaved yes); made in house; host or cells: E. coli DH10B
Put plainly: p38 kinase in vitro assay, phosphorylation of biotinylated PHAS-I with 32P-ATP. Conditions: in vitro P38-alpha kinase inhibition; read-out: P38 alpha kinase IC50. It counts as biochemical. The protocol:
The coding region of the human p38a cDNA was obtained by PCR-amplification from RNA isolated from the human monocyte cell line THP.1. […] Random primer, dNTP's and Superscript™ reagents were all purchased from Life-Technologies, Gaithersburg, Mass. The reaction was incubated at 42° C. for 1 hour. Amplification of p38 cDNA was performed by aliquoting 5 μl of the reverse transcriptase reaction into a 100 μl PCR reaction containing the following: 80 μl dH2O, 2 μl 50 mM DNTP's, 1 μl each of forward and reverse primers (50 pmol/μl), 10 μl of 10×buffer and 1 μl Expand™ polymerase (Boehringer Mannheim). The PCR primers incorporated BamHI sites onto the 5′ and 3′ end of the amplified fragment, and were purchased from Genosys. […] The PCR amplification was carried out in a DNA Thermal Cycler (Perkin Elmer) by repeating 30 cycles of 94° C. for 1 minute, 60° C. for 1 minute and 68° C. for 2 minutes. After amplification, excess primers and unincorporated dNTP's were removed from the amplified fragment with a Wizard™ PCR prep (Promega) and digested with BamHI (New England Biolabs). The BamHI digested fragment was ligated into BamHI digested PGEX 2T plasmid DNA (PharmaciaBiotech) using T-4 DNA ligase (New England Biolabs) as described by T. Maniatis, Molecular Cloning: A Laboratory Manual, 2nd ed. […] The ligation reaction was transformed into chemically competent E. coli DH10B cells purchased from Life-Technologies following the manufacturer's instructions. Plasmid DNA was isolated from the resulting bacterial colonies using a Promega Wizard™ miniprep kit.
Expression of Human p38a:
Overnight cultures were grown in-Luria Broth (LB) containing […] ampicillin. The next day, 500 ml of fresh LB was inoculated with 10 ml of overnight culture, and grown in a 2 liter flask at 37° C. with constant shaking until the culture reached an absorbance of 0.8 at 600 nm. Expression of the fusion protein was induced by addition of isopropyl b-D-thiogalactosidse (IPTG) to a final concentration of 0.05 mM. The cultures were shaken for three hours at room temperature, and the cells were harvested by centrifugation. The cell pellets were stored frozen until protein purification.
Purification of p38 Kinase-α:
All chemicals were from Sigma Chemical Co. unless noted. Twenty grams of E. coli cell pellet collected from five 1 L shake flask fermentations was resuspended in a volume of PBS (140 mM NaCl, 2.7 mM KCl, 10 mM Na2HPO4, 1.8 mM KH2PO4, pH 7.3) up to 200 ml. The cell suspension was adjusted to 5 mM DTT with 2 M DTT and then split equally into five 50 ml Falcon conical tubes. The cells were sonnicated (Ultrasonics model W375) with a 1 cm probe for 3×1 minutes (pulsed) on ice. Lysed cell material was removed by centrifugation (12,000×g, 15 minutes) and the clarified supernatant applied to glutathione-sepharose resin (Pharmacia).
Glutathione-sepharose Affinity Chromatography:
The resin was collected by centrifugation (600×g, 5 min) and washed with 2×150 ml PBS/1% Triton X-100, followed by 4×40 ml PBS. To cleave the p38 kinase from the GST-p38 fusion protein, the glutathione-sepharose resin was resuspended in 6 ml PBS containing 250 units thrombin protease (Pharmacia, specific activity>7500 units/mg) and mixed gently for 4 hours at room temperature. The glutathione-sepharose resin was removed by centrifugation (600×g, 5 min) and washed 2×6 ml with PBS. The PBS wash fractions and digest supernatant containing p38 kinase protein were pooled and adjusted to 0.3 mM PMSF.
Mono O Anion Exchange Chromatography:
The thrombin-cleaved p38 kinase was further purified by FPLC-anion exchange chromatography.
`CC(NC(=O)NC(C)c1[nH]nc(-c2ccc(F)cc2)c1-c1ccncc1)c1ccccc1` (stereo not shown) [Example B-0414]: the IC50 is 2540 nM.

Consider `CCN(CC)C(=O)N[C@H](C)c1[nH]nc(-c2ccc(F)cc2)c1-c1ccncc1` [Example B-0420], for which the IC50 was 830 nM. Still for that read-out and setting: the result for `COc1ccc(NC(=O)N[C@H](C)c2[nH]nc(-c3ccc(F)cc3)c2-c2ccncc2)c(OC)c1` [Example B-0422] reads < 100 nM; that for `C[C@@H](NS(=O)(=O)c1ccc(Br)cc1)c1[nH]nc(-c2ccc(F)cc2)c1-c1ccncc1` [Example B-0432], < 100 nM.

As to `C[C@@H](NS(=O)(=O)c1ccc(Cl)cc1)c1[nH]nc(-c2ccc(F)cc2)c1-c1ccncc1` [Example B-0433], the IC50 was < 100 nM.

For the molecule `C[C@@H](NS(=O)(=O)Cc1ccccc1[N+](=O)[O-])c1[nH]nc(-c2ccc(F)cc2)c1-c1ccncc1` [Example B-0442], the IC50 is < 100 nM. Same read-out and setting: to `C[C@@H](NS(=O)(=O)c1cccc(Cl)c1Cl)c1[nH]nc(-c2ccc(F)cc2)c1-c1ccncc1` [Example B-0445] belongs < 100 nM; to `C[C@@H](NS(=O)(=O)c1cccc(Br)c1)c1[nH]nc(-c2ccc(F)cc2)c1-c1ccncc1` [Example B-0455], < 100 nM; to `CCCCOc1ccc(S(=O)(=O)NC(C)c2[nH]nc(-c3ccc(F)cc3)c2-c2ccncc2)cc1` (stereo not shown) [Example B-0456], 1310 nM. On the same count and under the same terms, to `C[C@@H](NS(=O)(=O)c1cccc(Cl)c1)c1[nH]nc(-c2ccc(F)cc2)c1-c1ccncc1` [Example B-0462] belongs < 100 nM; to `C[C@@H](NS(=O)(=O)c1cc(Cl)cc(Cl)c1)c1[nH]nc(-c2ccc(F)cc2)c1-c1ccncc1` [Example B-0464], < 100 nM; to `C[C@@H](NS(=O)(=O)c1ccc(F)c(Cl)c1)c1[nH]nc(-c2ccc(F)cc2)c1-c1ccncc1` [Example B-0466], < 100 nM. The same measure, in the same setting: the result for `Cc1cccc(Cl)c1S(=O)(=O)N[C@H](C)c1[nH]nc(-c2ccc(F)cc2)c1-c1ccncc1` [Example B-0467] reads < 100 nM; that for `CC(=O)OCC(=O)NC(C)c1[nH]nc(-c2ccc(F)cc2)c1-c1ccncc1` (stereo not shown) [Example B-0530], 5530 nM. Take `CC(NC(=O)c1ccccc1I)c1[nH]nc(-c2ccc(F)cc2)c1-c1ccncc1` (stereo not shown) [Example B-0531]: the IC50 was determined as 500 nM.

On to `CC(NC(=O)c1ccc(F)cc1)c1[nH]nc(-c2ccc(F)cc2)c1-c1ccncc1` (stereo not shown) [Example B-0533], for which the 50% inhibitory concentration (IC50) amounted to 1230 nM.

As to `C=CCOC(=O)NC(C)c1[nH]nc(-c2ccc(F)cc2)c1-c1ccncc1` (stereo not shown) [Example B-0534], the IC50 turned out to be 410 nM. Still for that read-out and setting: to `CC(NC(=O)C1CCC1)c1[nH]nc(-c2ccc(F)cc2)c1-c1ccncc1` (stereo not shown) [Example B-0537] belongs 3440 nM; to `CC(NC(=O)C1CC1)c1[nH]nc(-c2ccc(F)cc2)c1-c1ccncc1` (stereo not shown) [Example B-0538], 1130 nM; to `CC(NC(=O)c1ccc(I)cc1)c1[nH]nc(-c2ccc(F)cc2)c1-c1ccncc1` (stereo not shown) [Example B-0540], 3620 nM. The same measure, in the same setting: the result for `CC(=O)OC(C)C(=O)NC(C)c1[nH]nc(-c2ccc(F)cc2)c1-c1ccncc1` (stereo not shown) [Example B-0542] reads 1550 nM. Same read-out and setting: to `COCC(=O)NC(C)c1[nH]nc(-c2ccc(F)cc2)c1-c1ccncc1` (stereo not shown) [Example B-0543] belongs 1560 nM; to `COc1ccccc1C(=O)NC(C)c1[nH]nc(-c2ccc(F)cc2)c1-c1ccncc1` (stereo not shown) [Example B-0544], 1120 nM; to `CC(NC(=O)c1ccccc1C(F)(F)F)c1[nH]nc(-c2ccc(F)cc2)c1-c1ccncc1` (stereo not shown) [Example B-0545], 1060 nM. Regarding `CC(NC(=O)C1CCCC1)c1[nH]nc(-c2ccc(F)cc2)c1-c1ccncc1` (stereo not shown) [Example B-0553], the IC50 was determined as 1440 nM. On the same count and under the same terms, to `CC(NC(=O)c1cccnc1)c1[nH]nc(-c2ccc(F)cc2)c1-c1ccncc1` (stereo not shown) [Example B-0554] belongs 2580 nM; to `CC(NC(=O)c1ccncc1)c1[nH]nc(-c2ccc(F)cc2)c1-c1ccncc1` (stereo not shown) [Example B-0555], 1870 nM. As to `CC(NC(=O)c1ccccn1)c1[nH]nc(-c2ccc(F)cc2)c1-c1ccncc1` (stereo not shown) [Example B-0556], the IC50 worked out at 490 nM. Same read-out and setting: the result for `CC(Oc1ccccc1)C(=O)NC(C)c1[nH]nc(-c2ccc(F)cc2)c1-c1ccncc1` (stereo not shown) [Example B-0558] reads 850 nM; that for `CC(NC(=O)c1cnc2ccccc2n1)c1[nH]nc(-c2ccc(F)cc2)c1-c1ccncc1` (stereo not shown) [Example B-0561], 2070 nM; that for `CC(NS(=O)(=O)c1ccc(F)cc1)c1[nH]nc(-c2ccc(F)cc2)c1-c1ccncc1` (stereo not shown) [Example B-0562], 220 nM.

Regarding `CC(NS(=O)(=O)C(C)C)c1[nH]nc(-c2ccc(F)cc2)c1-c1ccncc1` (stereo not shown) [Example B-0564], the IC50 came to 820 nM.

In the case of `CC(NS(=O)(=O)Cc1ccccc1)c1[nH]nc(-c2ccc(F)cc2)c1-c1ccncc1` (stereo not shown) [Example B-0566], the IC50 is < 100 nM. For `CC(NS(=O)(=O)c1ccc(F)cc1F)c1[nH]nc(-c2ccc(F)cc2)c1-c1ccncc1` (stereo not shown) [Example B-0567], the IC50 worked out at 140 nM.

`CC(NS(=O)(=O)C(F)(F)F)c1[nH]nc(-c2ccc(F)cc2)c1-c1ccncc1` (stereo not shown) [Example B-0568]: the IC50 is 1220 nM.

As for `CC(NS(=O)(=O)c1ccccc1F)c1[nH]nc(-c2ccc(F)cc2)c1-c1ccncc1` (stereo not shown) [Example B-0569], the IC50 is 150 nM. As for `CCCS(=O)(=O)NC(C)c1[nH]nc(-c2ccc(F)cc2)c1-c1ccncc1` (stereo not shown) [Example B-0570], the half-maximal inhibitory concentration (IC50) stood at 270 nM. The same measure, in the same setting: the result for `CCCCS(=O)(=O)NC(C)c1[nH]nc(-c2ccc(F)cc2)c1-c1ccncc1` (stereo not shown) [Example B-0571] reads 380 nM; that for `CCS(=O)(=O)NC(C)c1[nH]nc(-c2ccc(F)cc2)c1-c1ccncc1` (stereo not shown) [Example B-0572], 270 nM; that for `CC(NS(=O)(=O)c1cccs1)c1[nH]nc(-c2ccc(F)cc2)c1-c1ccncc1` (stereo not shown) [Example B-0575], 32 nM. Still for that read-out and setting: the result for `COc1ccc(S(=O)(=O)NC(C)c2[nH]nc(-c3ccc(F)cc3)c2-c2ccncc2)cc1OC` (stereo not shown) [Example B-0577] reads 91 nM; that for `CC(C)NC(=O)NC(C)c1[nH]nc(-c2ccc(F)cc2)c1-c1ccncc1` (stereo not shown) [Example B-0578], 1880 nM; that for `CC(NC(=O)N1CCOCC1)c1[nH]nc(-c2ccc(F)cc2)c1-c1ccncc1` (stereo not shown) [Example B-0582], 1030 nM. Same read-out and setting: the result for `CC(NC(=O)Nc1ccc(F)cc1)c1[nH]nc(-c2ccc(F)cc2)c1-c1ccncc1` (stereo not shown) [Example B-0583] reads 3930 nM. In the case of `CC(NC(=O)N(C)C)c1[nH]nc(-c2ccc(F)cc2)c1-c1ccncc1` (stereo not shown) [Example B-0584], the IC50 was found to be 660 nM.

Staying with this assay, now noted: in vitro P38-alpha kinase; read-out: P38 alpha kinase IC50.
With `O=S(=O)(NCc1[nH]nc(-c2ccc(F)cc2)c1-c1ccncc1)c1ccc(Br)cc1` [Example B-0224], the IC50 was < 100 nM.

Consider `O=C(O)c1ccccc1S(=O)(=O)NCc1[nH]nc(-c2ccc(F)cc2)c1-c1ccncc1` [Example B-0228], for which the IC50 came out at 150 nM. Same read-out and setting: the result for `COc1ccc(Br)cc1S(=O)(=O)NCc1[nH]nc(-c2ccc(F)cc2)c1-c1ccncc1` [Example B-0249] reads < 100 nM. The same measure, in the same setting: the result for `O=S(=O)(NCc1[nH]nc(-c2ccc(F)cc2)c1-c1ccncc1)c1ccc(-c2ccccc2)cc1` [Example B-0256] reads < 100 nM; that for `O=C(NCc1[nH]nc(-c2ccc(F)cc2)c1-c1ccncc1)c1c(Cl)cccc1Cl` [Example B-0294], 680 nM; that for `Cc1noc(C)c1C(=O)NCc1[nH]nc(-c2ccc(F)cc2)c1-c1ccncc1` [Example B-0304], 550 nM. The same measure, in the same setting: the result for `C[C@@H](NS(=O)(=O)/C=C/c1ccccc1)c1[nH]nc(-c2ccc(F)cc2)c1-c1ccncc1` [Example B-0388] reads < 100 nM.
